In publication PMC6494078, “Development of an HPLC-based guanosine monophosphate kinase assay and application to Plasmodium vivax guanylate kinase” (Analytical Biochemistry, 2019):

What was measured:
Type in all cases: biochemical
[1] = target: T1, Plasmodium vivax guanylate kinase (PvGK) (Plasmodium vivax, UniProt A5K709); assay: HPLC guanylate kinase assay, ATP saturation curve (sigmoidal, h = […]; apparent Kprime)
T1 construct: gene PVX_099895; full-length PvGK with an N-terminal hexa-histidine tag

[2] = target: T1, Plasmodium vivax guanylate kinase (PvGK); assay: HPLC detection of product formed by purified enzyme
[3] = target: T1, Plasmodium vivax guanylate kinase (PvGK); assay: HPLC guanylate kinase assay, GMP saturation curve (substrate inhibition)
[4] = target: T1, Plasmodium vivax guanylate kinase (PvGK); assay: HPLC guanylate kinase inhibition assay, percent inhibition at […]; conditions: read-out: % inhibition at 5 mM
[5] = target: T1, Plasmodium vivax guanylate kinase (PvGK); assay: HPLC guanylate kinase inhibition assay, IC50 curve

T1 sequence (A5K709 entry or part of it): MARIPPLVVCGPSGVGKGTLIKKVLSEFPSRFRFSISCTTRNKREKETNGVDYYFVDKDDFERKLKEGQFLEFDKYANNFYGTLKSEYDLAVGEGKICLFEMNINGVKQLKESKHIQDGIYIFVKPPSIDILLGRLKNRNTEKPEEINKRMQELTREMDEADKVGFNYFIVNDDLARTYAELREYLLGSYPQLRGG

Compound: Nc1ncnc2c1ncn2[C@@H]1O[C@H](COP(=O)(O)OP(=O)(O)OP(=O)(O)O)[C@@H](O)[C@H]1O [ATP]
- Km [1]: 15.6 ± 2.07 µM

Compound: Nc1nc2c(ncn2[C@@H]2O[C@H](COP(=O)(O)OP(=O)(O)O)[C@@H](O)[C@H]2O)c(=O)[nH]1 [GDP]
- HPLC detection of product formed by purified enzyme [2]: used to study the kinetics of the forward reaction (forming ADP and GDP) catalyzed by PvGK

Compound: Nc1nc(=O)c2ncn([C@@H]3O[C@H](COP(=O)(O)O)[C@@H](O)[C@H]3O)c2[nH]1 [GMP]
- HPLC guanylate kinase assay, GMP saturation curve (substrate inhibition) [3]: showed a decrease in initial velocity with increasing GMP concentrations, indicating strong substrate inhibition

Compound: O=c1ccc2ccc(O)c(O)c2o1 [compound 1, 7,8-dihydroxycoumarin]
- inhibition at 5000 µM [4]: 68%

Compound: O=C(O)C1CSC2(C(=O)O)CCC(=O)N12 (centres unmarked) [compound 2, Compound 2]
- IC50 [5]: 2.7 mM
